Experiment: Agonist activity at human IP receptor in human platelets assessed as inhibition of ADP-induced platelet aggregation
With `O=C(O)COc1cccc2c1CCC(Cn1ncc(-c3cccc(F)c3F)c(-c3ccccc3)c1=O)C2` (centres undefined) the IC50 was 0.087 µM. Molecule `COc1ccc(-c2c(-c3ccccc3)cnn(CC3CCc4c(cccc4OCC(=O)O)C3)c2=O)cc1` (centres undefined) has an IC50 of 0.33 µM. In the case of `O=C(O)COc1cccc2c1CCC(Cn1ncc(-c3ccccc3)c(-c3ccccc3)c1=O)C2` (centres undefined), the IC50 is reported as 0.325 µM. `COc1cccc(-c2cnn(CC3CCc4c(cccc4OCC(=O)O)C3)c(=O)c2-c2ccccc2)c1F` (centres undefined) gave an IC50 of 0.064 µM. `O=C(O)COc1cccc2c1CCC(Cn1ncc(-c3cccc(F)c3)c(-c3ccccc3)c1=O)C2` (centres undefined) showed an IC50 of 0.191 µM. `O=C(O)COc1cccc2c1CCC(Cn1ncc(-c3ccccc3F)c(-c3ccccc3)c1=O)C2` (centres undefined) gave an IC50 of 0.22 µM. Molecule `O=C(O)COc1cccc2c1CC[C@@H](Cn1ncc(-c3cccc(F)c3F)c(-c3ccc(F)cc3)c1=O)C2` has an IC50 of 0.062 µM. `O=C(O)COc1cccc2c1CCC(Cn1ncc(-c3cccc(F)c3F)c(-c3ccc(F)cc3)c1=O)C2` (centres undefined) gave an IC50 of 0.062 µM. With `O=C(O)COc1cccc2c1CCC(Cn1ncc(-c3ccccc3)c(-c3ccc(F)cc3)c1=O)C2` (centres undefined) the IC50 was 0.23 µM.

— BindingDB's records for doi:10.1016/j.bmcl.2015.01.024 (Arena Pharmaceuticals, 2015)
